From US9040532B2, “Alpha adrenergic receptor modulators” (Allergan, Inc., priority 2009, dated 2015) come the findings set out here.

One assay has as its target T1, Alpha 2A (Homo sapiens, UniProt P08913).
T1 sequence (P08913 1-465): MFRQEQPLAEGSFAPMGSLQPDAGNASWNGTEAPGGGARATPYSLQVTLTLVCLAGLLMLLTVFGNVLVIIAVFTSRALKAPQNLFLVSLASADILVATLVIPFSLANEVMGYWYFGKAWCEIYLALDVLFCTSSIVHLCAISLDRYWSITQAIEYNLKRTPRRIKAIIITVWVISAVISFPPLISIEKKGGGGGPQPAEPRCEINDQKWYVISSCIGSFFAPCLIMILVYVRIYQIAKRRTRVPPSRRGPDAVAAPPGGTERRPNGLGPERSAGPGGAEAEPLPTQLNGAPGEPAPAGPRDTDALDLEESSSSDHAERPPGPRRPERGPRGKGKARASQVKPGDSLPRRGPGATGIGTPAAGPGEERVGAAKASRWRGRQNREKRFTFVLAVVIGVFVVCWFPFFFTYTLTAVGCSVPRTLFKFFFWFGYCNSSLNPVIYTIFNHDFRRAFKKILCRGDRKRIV
Put plainly: FLIPR assay, intracellular Ca2+ mobilization, alpha 2A. The assay is classed as cell-based. As to conditions: for pEC50: agonist, read-out: Alpha 2A Potency (EC50); for Alpha 2A relative efficacy compared to a standard full agonist: value in parentheses. The procedure:
The compounds described herein were tested for alpha adrenergic activity using a Fluorometric Imaging plate Reader (FLIPR) assay (Princen et al., 2003, Cytometry Part A. 51, pp. 35-45). Cells are loaded into a plate reader with a Ca^2+ dye indicator and incubated with various compounds. This assay is adequate for monitoring the intracellular Ca^2+ mobilization from fluorescent readings to evaluate receptor agonists. […] The compounds described herein activate alpha adrenergic receptors.

The target of assay [1] is T2, Alpha 2B (Homo sapiens, UniProt P18089).
T2 sequence (P18089 1-450): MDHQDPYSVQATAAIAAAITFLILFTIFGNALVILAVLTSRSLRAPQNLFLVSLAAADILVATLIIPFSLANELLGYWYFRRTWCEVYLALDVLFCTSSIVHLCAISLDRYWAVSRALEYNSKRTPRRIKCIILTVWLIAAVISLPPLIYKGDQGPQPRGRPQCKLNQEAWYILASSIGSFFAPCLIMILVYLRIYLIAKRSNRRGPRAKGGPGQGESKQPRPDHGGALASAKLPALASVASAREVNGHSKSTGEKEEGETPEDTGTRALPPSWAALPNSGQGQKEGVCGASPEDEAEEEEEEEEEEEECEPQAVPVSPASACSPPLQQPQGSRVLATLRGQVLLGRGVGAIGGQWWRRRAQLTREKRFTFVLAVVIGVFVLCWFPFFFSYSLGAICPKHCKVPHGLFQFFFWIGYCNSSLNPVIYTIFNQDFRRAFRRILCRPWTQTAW
Put plainly: FLIPR assay, intracellular Ca2+ mobilization, alpha 2B. The assay is classed as cell-based. The following applies: FLIPR; for pEC50: agonist, read-out: Alpha 2B Potency (EC50); for Alpha 2B relative efficacy compared to a standard full agonist: value in parentheses. On the procedure: (§1) Cells are loaded into a plate reader with a Ca^2+ dye indicator and incubated with various compounds. This assay is adequate for monitoring the intracellular Ca^2+ mobilization from fluorescent readings to evaluate receptor agonists.

The next assay deals with T3, Alpha 2C (Homo sapiens, UniProt P18825).
T3 sequence (P18825 1-462): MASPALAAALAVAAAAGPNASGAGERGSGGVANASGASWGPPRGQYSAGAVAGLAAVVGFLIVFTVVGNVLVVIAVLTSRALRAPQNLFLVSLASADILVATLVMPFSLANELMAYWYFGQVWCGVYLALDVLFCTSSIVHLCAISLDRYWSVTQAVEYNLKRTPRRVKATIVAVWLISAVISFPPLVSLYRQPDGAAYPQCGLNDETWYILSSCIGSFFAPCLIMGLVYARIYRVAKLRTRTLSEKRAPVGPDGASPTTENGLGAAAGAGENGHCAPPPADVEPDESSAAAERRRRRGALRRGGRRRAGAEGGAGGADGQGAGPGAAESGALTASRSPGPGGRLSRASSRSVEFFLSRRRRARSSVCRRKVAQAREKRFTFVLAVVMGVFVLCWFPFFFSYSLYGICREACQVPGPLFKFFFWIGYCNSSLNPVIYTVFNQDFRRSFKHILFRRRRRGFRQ
The assay can be described thus: FLIPR assay, intracellular Ca2+ mobilization, alpha 2C. The assay is classed as cell-based. As to conditions: for pEC50: agonist, read-out: Alpha 2C Potency (EC50); for Alpha 2C relative efficacy compared to a standard full agonist: value in parentheses. On the procedure: as §1

The test system of assay [2] is Intraoccular Pressure (IOP). The assay can be described thus: In-vivo intraocular pressure compound screening. The following applies: normotensive male Dutch-Belted rabbits, single 50 μl topical drop, 0.15% or 1.0%; for IOP lowering: IOP 0.5-8 h vs 0 h baseline. On the procedure: The experimental animals used, were Normotensive male Dutch-Belted rabbits over 6 months in age (n=4/compound/dose screened). A single drop (50 μl) of the drug formulation, which yields 0.15% or 1.0% of the active metabolite was administered topically by pipette onto the right eye (treated eye) at approximately 0700 hours. Intraoccular Pressure (IOP) of the rabbits (treated and untreated eyes) was measured 0 hours before and at 0.5, 1, 2, 3, 4, 6 and 8 hours after topical eyedrop administration. IOP at the time of eyedrop administration (0 hours) was used as a baseline value. Prior to the tonometric measurements, 0.05% proparacaine (50 μl) was administered to each eye. Tonometric IOP measurements were obtained with a Mentor Pneumontonmeter. Additionally, all studies were masked. At least 1 week of wash-out time was allowed for each rabbit between dosings. All animals were examined for sedation, ocular irritation, and changes in pupil diameter throughout the course of the experiments. […] In this assay, Compound 10 lowered IOP about 35%.

Assay [3] deals with Alpha 2B (Homo sapiens, UniProt P18089). The assay can be described thus: FLIPR assay, intracellular Ca2+ mobilization, alpha 2B. The assay is classed as cell-based. The procedure: as §1

pEC50: −log10 of the molar value. Where two headings read alike, the source gives them in different places.

With `Brc1c(NC2=NCCC2)ccc2[nH]cnc12` [Compound 10, 4-Bromo-N-(3,4-dihydro-2H-pyrrol-5-yl)-1H-benzimidazol-5-amine], at Alpha 2A, the negative-log EC50 (pEC50) is 8.52 and the “Alpha 2A relative efficacy compared to a standard full agonist” value (“Alpha 2A relative efficacy” for short) is recorded as “(1)”. Moreover, at Alpha 2B [1], the negative logarithm of the EC50 (pEC50) was 7.05 and the “Alpha 2B relative efficacy compared to a standard full agonist” value (“Alpha 2B relative efficacy” for short) is given as “(0.76)”. Also, on Alpha 2C, the pEC50 is 8.82 and the “Alpha 2C relative efficacy compared to a standard full agonist” value (from here on “Alpha 2C relative efficacy”) is “(0.94)”. Also, the “IOP lowering” value in assay [2] was “show potential in lowering IOP”. In addition, the IOP lowered entry in assay [2] (vs 0 h baseline) is listed as “about 35%”.

On to `c1cc2c(cc1NC1=NCCC1)CCCC2`, for which the pEC50 on Alpha 2B [3] is 6.53.

`c1ccc2c(NC3=NCCC3)cccc2c1` [Compound 1, N-1-Naphthyl-3,4-dihydro-2H-pyrrol-5-amine]: on Alpha 2A, the negative-log EC50 (pEC50) was 7.21 and the “Alpha 2A relative efficacy” value is reported as “(0.81)”. For the same compound, on Alpha 2B [1], the negative logarithm of the EC50 (pEC50) was 7.52 and the “Alpha 2B relative efficacy” value was “(0.16)”. Besides, on Alpha 2C, the pEC50 is 8.30 and the “Alpha 2C relative efficacy” value is “(0.88)”.

Regarding `Brc1c(NC2=NCCC2)ccc2nccnc12` [Compound 8, 5-Bromo-N-(3,4-dihydro-2H-pyrrol-5-yl)quinoxalin-6-amine], at Alpha 2A, the pEC50 is 5.97 and the “Alpha 2A relative efficacy” value was “(0.81)”. Further, on Alpha 2B [1], the negative-log EC50 (pEC50) was 5.66 and the “Alpha 2B relative efficacy” value was “(0.21)”. Also, on Alpha 2C, the negative logarithm of the EC50 (pEC50) is 5.98 and the “Alpha 2C relative efficacy” value is listed as “(0.82)”.

As for `Clc1c(NC2=NCCC2)ccc2[nH]cnc12` [Compound 11, 4-Chloro-N-(3,4-dihydro-2H-pyrrol-5-yl)-1H-benzimidazol-5-amine], on Alpha 2A, the negative logarithm of the EC50 (pEC50) was 6.67 and the “Alpha 2A relative efficacy” value is recorded as “(0.98)”. Also, at Alpha 2B [1], the pEC50 was 6.29 and the “Alpha 2B relative efficacy” value is given as “(0.69)”. Also, on Alpha 2C, the negative logarithm of the EC50 (pEC50) is 7.46 and the “Alpha 2C relative efficacy” value is reported as “(1)”. In addition, in assay [2], the “IOP lowering” value was “show potential in lowering IOP”.

`c1cc2cc(/N=C3\CCCN3)cnc2[nH]1` [Compound 26, N-[(2E)-Pyrrolidin-2-ylidene]-1H-pyrrolo[2,3-b]pyridin-5-amine]: on Alpha 2A, the pEC50 is 6.93 and the “Alpha 2A relative efficacy” value is recorded as “(0.85)”. On Alpha 2B [1], the pEC50 was 7.77 and the “Alpha 2B relative efficacy” value is reported as “(0.96)”. Moreover, at Alpha 2C, the pEC50 was 8.22 and the “Alpha 2C relative efficacy” value is “(0.97)”.

Take `Clc1c(NC2=NCCC2)ccc2cccnc12` [Compound 9, 8-Chloro-N-(3,4-dihydro-2H-pyrrol-5-yl)quinolin-7-amine]: on Alpha 2A, the pEC50 was 6.37 and the “Alpha 2A relative efficacy” value is listed as “(1)”. Besides, at Alpha 2B [1], the pEC50 is 5.98 and the “Alpha 2B relative efficacy” value is given as “(0.38)”. Also, at Alpha 2C, the pEC50 is 6.66 and the “Alpha 2C relative efficacy” value is given as “(0.97)”. For the same compound, in assay [2], the “IOP lowering” value is reported as “show potential in lowering IOP”.

As for `Cc1c(NC2=NCCC2)ccc2c1NCCO2` [Compound 36, N-(3,4-Dihydro-2H-pyrrol-5-yl)-5-methyl-3,4-dihydro-2H-1,4-benzoxazin-6-amine], at Alpha 2A, the pEC50 was 6.23 and the “Alpha 2A relative efficacy” value is reported as “(0.68)”. Further, at Alpha 2B [1], the pEC50 was 6.24 and the “Alpha 2B relative efficacy” value is “(0.77)”. In addition, at Alpha 2C, the pEC50 is 6.49 and the “Alpha 2C relative efficacy” value is “(0.87)”.

Consider `Cc1c(NC2=NCCC2)ccc2cccnc12` [Compound 29, N-(3,4-Dihydro-2H-pyrrol-5-yl)-8-methylquinolin-7-amine], for which, on Alpha 2A, the pEC50 was 8.22 and the “Alpha 2A relative efficacy” value is given as “(0.98)”. In addition, on Alpha 2B [1], the negative logarithm of the EC50 (pEC50) is 7.10 and the “Alpha 2B relative efficacy” value is reported as “(0.2)”. On Alpha 2C, the pEC50 is over 9.00 and the “Alpha 2C relative efficacy” value is reported as “(1)”. In assay [2], the “IOP lowering” value is given as “show potential in lowering IOP”.

As to `Cc1cccc2c1CC[C@@H]2NC1=NCCC1` [Compound 37, N-[(1S)-4-Methyl-2,3-dihydro-1H-inden-1-yl]-3,4-dihydro-2H-pyrrol-5-amine], at Alpha 2A, the negative-log EC50 (pEC50) is 6.57 and the “Alpha 2A relative efficacy” value is reported as “(0.43)”. On Alpha 2B [1], the pEC50 is 7.68 and the “Alpha 2B relative efficacy” value was “(0.9)”. On Alpha 2C, the negative logarithm of the EC50 (pEC50) is 7.24 and the “Alpha 2C relative efficacy” value is “(0.94)”.

`Cc1c(NC2=NCCC2)ccc2nccnc12` [Compound 27, N-(3,4-Dihydro-2H-pyrrol-5-yl)-5-methylquinoxalin-6-amine]: at Alpha 2A, the negative-log EC50 (pEC50) was 6.92 and the “Alpha 2A relative efficacy” value is on record as “(0.89)”. In addition, on Alpha 2C, the negative logarithm of the EC50 (pEC50) is 7.80 and the “Alpha 2C relative efficacy” value is “(0.9)”. In assay [2], the “IOP lowering” value is “show potential in lowering IOP”.

For the compound `Cc1c(NC2=NCCC2)ccc2[nH]cnc12` [Compound 12, N-(3,4-dihydro-2H-pyrrol-5-yl)-4-methyl-1H-benzimidazol-5-amine], at Alpha 2A, the negative logarithm of the EC50 (pEC50) is 6.69 and the “Alpha 2A relative efficacy” value was “(1)”. Further, on Alpha 2B [1], the pEC50 was 6.29 and the “Alpha 2B relative efficacy” value is “(0.86)”. Besides, on Alpha 2C, the pEC50 was 7.24 and the “Alpha 2C relative efficacy” value is reported as “(1)”. Moreover, in assay [2], the “IOP lowering” value was “show potential in lowering IOP”.

On to `Cc1ccc2ccccc2c1NC1=NCCC1` [Compound 2, N-(2-Methyl-1-naphthyl)-3,4-dihydro-2H-pyrrol-5-amine], for which, at Alpha 2A, the pEC50 is 6.13 and the “Alpha 2A relative efficacy” value is given as “(0.61)”. At Alpha 2B [1], the negative logarithm of the EC50 (pEC50) is 6.84 and the “Alpha 2B relative efficacy” value is reported as “(0.18)”. On Alpha 2C, the pEC50 was 6.43 and the “Alpha 2C relative efficacy” value is on record as “(0.85)”.

Turning to `Brc1c(NC2=NCCC2)ccc2scnc12` [Compound 31, 4-Bromo-N-(3,4-dihydro-2H-pyrrol-5-yl)-1,3-benzothiazol-5-amine], at Alpha 2A, the negative logarithm of the EC50 (pEC50) was 7.02 and the “Alpha 2A relative efficacy” value is listed as “(.98)”. For the same compound, at Alpha 2B [1], the pEC50 was 6.93 and the “Alpha 2B relative efficacy” value was “(.76)”. Moreover, at Alpha 2C, the negative-log EC50 (pEC50) is 7.60 and the “Alpha 2C relative efficacy” value is recorded as “(.92)”.
